Tests used:
Experiment in all cases: relative viability (nuclei count vs DMSO), 5 days (fraction); higher = more cells survive
Etoposide + Crizotinib = compound: COc1cc([C@@H]2c3cc4c(cc3[C@@H](O[C@@H]3O[C@@H]5CO[C@@H](C)O[C@H]5[C@H](O)[C@H]3O)[C@H]3COC(=O)[C@H]23)OCO4)cc(OC)c1O [Etoposide] + C[C@@H](Oc1cc(-c2cnn(C3CCNCC3)c2)cnc1N)c1c(Cl)ccc(F)c1Cl [Crizotinib] (partner 1 µM)
How it was run: (§1)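 Lung cancer cell lines in 1536-well plates were dosed by pin tool the day after seeding, either with one drug alone or with a fixed anchor-drug dose plus five library-drug doses (not always all listed) in √10 steps. After 5 days, cells were fixed and their nuclei stained in one step (final 0.05% Triton X-100, 1% formaldehyde, 1 ug/ml Hoechst), then counted on 4× images. Relative viability is the nuclei count in treated wells divided by that in vehicle wells. Values are medians of duplicate plates.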

Bleomycin + Olaparib = compound: CC1=C(N=C(N=C1N)[C@H](CC(=O)N)NC[C@@H](C(=O)N)N)C(=O)N[C@@H]([C@H](C2=CN=CN2)OC3C(C(C(C(O3)CO)O)O)OC4C(C(C(C(O4)CO)O)OC(=O)N)O)C(=O)N[C@H](C)[C@H]([C@H](C)C(=O)N[C@@H]([C@@H](C)O)C(=O)NCCC5=NC(=CS5)C6=NC(=CS6)C(=O)NCCC[S+](C)C)O [Bleomycin] + O=C(c1cc(Cc2n[nH]c(=O)c3ccccc23)ccc1F)N1CCN(C(=O)C2CC2)CC1 [Olaparib] (partner 8 µM); conditions: main component drawn
How it was run: as §1

Bleomycin + AZD7762 = compound: CC1=C(N=C(N=C1N)[C@H](CC(=O)N)NC[C@@H](C(=O)N)N)C(=O)N[C@@H]([C@H](C2=CN=CN2)OC3C(C(C(C(O3)CO)O)O)OC4C(C(C(C(O4)CO)O)OC(=O)N)O)C(=O)N[C@H](C)[C@H]([C@H](C)C(=O)N[C@@H]([C@@H](C)O)C(=O)NCCC5=NC(=CS5)C6=NC(=CS6)C(=O)NCCC[S+](C)C)O [Bleomycin] + NC(=O)Nc1cc(-c2cccc(F)c2)sc1C(=O)N[C@H]1CCCNC1 [AZD7762] (partner 0.2 µM); conditions: main component drawn
How it was run: as §1

Etoposide + Foretinib = compound: COc1cc([C@@H]2c3cc4c(cc3[C@@H](O[C@@H]3O[C@@H]5CO[C@@H](C)O[C@H]5[C@H](O)[C@H]3O)[C@H]3COC(=O)[C@H]23)OCO4)cc(OC)c1O [Etoposide] + COc1cc2c(Oc3ccc(NC(=O)C4(C(=O)Nc5ccc(F)cc5)CC4)cc3F)ccnc2cc1OCCCN1CCOCC1 [Foretinib] (partner 0.25 µM)
How it was run: as §1

Row | Cell Line | relative viability (Etoposide + Crizotinib; first compound 0.01 µM) | relative viability (Etoposide + Crizotinib; first compound 0.03162 µM) | relative viability (Etoposide + Crizotinib; first compound 0.1 µM) | relative viability (Etoposide + Crizotinib; first compound 0.3162 µM) | relative viability (Etoposide + Crizotinib; first compound 1 µM) | relative viability (Bleomycin + Olaparib; first compound 0.01 µM) | relative viability (Bleomycin + Olaparib; first compound 0.03162 µM) | relative viability (Bleomycin + Olaparib; first compound 0.1 µM) | relative viability (Bleomycin + Olaparib; first compound 0.3162 µM) | relative viability (Bleomycin + Olaparib; first compound 1 µM) | relative viability (Bleomycin + AZD7762; first compound 0.01 µM) | relative viability (Bleomycin + AZD7762; first compound 0.03162 µM) | relative viability (Bleomycin + AZD7762; first compound 0.1 µM) | relative viability (Bleomycin + AZD7762; first compound 0.3162 µM) | relative viability (Bleomycin + AZD7762; first compound 1 µM) | relative viability (Etoposide + Foretinib; first compound 0.01 µM) | relative viability (Etoposide + Foretinib; first compound 0.03162 µM) | relative viability (Etoposide + Foretinib; first compound 0.1 µM) | relative viability (Etoposide + Foretinib; first compound 0.3162 µM) | relative viability (Etoposide + Foretinib; first compound 1 µM)
1 | HCC-44 | 0.82 | 0.807 | 0.812 | 0.696 | 0.351 | 0.84 | 0.739 | 0.657 | 0.415 | 0.401 | 0.955 | 1 | 0.965 | 0.646 | 0.573 |  |  |  |  | 
2 | IA-LM | 0.749 | 1.15 | 0.475 | 0.73 | 0.698 | 0.681 | 0.629 | 0.716 | 0.474 | 0.328 |  |  |  |  |  | 1.06 | 1.09 | 0.865 | 0.975 | 0.494
3 | NCI-H520 | 0.759 | 0.729 | 0.944 | 0.725 | 0.629 | 0.339 | 0.322 | 0.325 | 0.251 | 0.268 |  |  |  |  |  | 0.825 | 0.93 | 0.784 | 0.67 | 0.554
4 | NCI-H522 |  |  |  |  |  | 0.498 | 0.627 | 0.625 | 0.404 | 0.333 | 0.76 | 0.796 | 0.65 | 0.519 | 0.468 |  |  |  |  | 
5 | NCI-H661 | 1.03 | 0.981 | 0.997 | 0.845 | 0.736 | 0.654 | 0.59 | 0.513 | 0.322 | 0.363 |  |  |  |  |  | 0.982 | 1.06 | 0.889 | 0.845 | 0.53
6 | NCI-H1299 | 0.965 | 1 | 1.04 | 0.948 | 0.757 | 0.819 | 0.904 | 0.681 | 0.346 | 0.252 |  |  |  |  |  | 1.07 | 1.11 | 1.11 | 0.997 | 0.811
7 | NCI-H1395 |  |  |  |  |  | 0.434 | 0.448 | 0.406 | 0.35 | 0.377 | 0.371 | 0.401 | 0.352 | 0.392 | 0.324 | 1 | 0.978 | 0.868 | 0.885 | 0.606
8 | NCI-H1563 | 0.95 | 0.757 | 0.685 | 0.595 | 0.448 |  |  |  |  |  |  |  |  |  |  | 0.758 | 0.93 | 0.785 | 0.609 | 0.604
9 | NCI-H1623 |  |  |  |  |  |  |  |  |  |  |  |  |  |  |  | 0.984 | 0.937 | 0.628 | 0.658 | 0.298
10 | NCI-H1648 |  |  |  |  |  | 0.757 | 0.571 | 0.443 | 0.267 | 0.357 | 0.623 | 0.716 | 0.512 | 0.373 | 0.375 |  |  |  |  | 
11 | NCI-H1650 | 0.874 | 0.776 | 0.634 | 0.253 | 0.16 | 0.285 | 0.183 | 0.167 | 0.156 | 0.158 |  |  |  |  |  | 0.981 | 1.09 | 0.9 | 0.431 | 0.281
12 | NCI-H1792 | 1.02 | 0.913 | 0.825 | 0.831 | 0.623 | 0.34 | 0.447 | 0.487 | 0.183 | 0.11 | 0.615 | 0.635 | 0.716 | 0.253 | 0.141 |  |  |  |  | 
13 | NCI-H1793 |  |  |  |  |  | 0.845 | 0.675 | 0.589 | 0.191 | 0.195 | 0.316 | 0.564 | 0.341 | 0.159 | 0.177 | 0.491 | 0.644 |  | 0.503 | 0.248
14 | NCI-H2009 | 1.02 | 0.994 | 1.08 | 0.713 | 0.329 | 0.586 | 0.709 | 0.62 | 0.453 | 0.268 |  |  |  |  |  | 1.17 | 1.24 | 1.17 | 0.835 | 0.694
15 | NCI-H2023 | 0.605 | 0.622 | 0.525 | 0.212 | 0.106 | 0.273 | 0.357 | 0.238 | 0.0886 | 0.09 |  |  |  |  |  | 0.987 | 0.886 | 0.814 | 0.352 | 0.218
16 | NCI-H2228 | 0.633 | 0.551 | 0.457 | 0.373 | 0.218 | 0.443 | 0.574 | 0.457 | 0.211 | 0.159 |  |  |  |  |  | 0.803 | 1.04 | 0.812 | 0.519 | 0.204
17 | NCI-H2342 |  |  |  |  |  | 0.377 | 0.4 | 0.416 | 0.319 | 0.362 | 0.5 | 0.611 | 0.495 | 0.589 | 0.42 | 0.878 | 1.02 | 0.493 | 0.359 | 0.298
18 | SK-LU-1 | 0.778 | 0.902 | 0.614 | 0.387 | 0.327 | 0.38 | 0.436 | 0.397 | 0.307 | 0.29 |  |  |  |  |  | 0.765 | 0.701 | 0.484 | 0.329 | 0.18
19 | SK-MES-1 | 0.943 | 0.957 | 0.887 | 0.433 | 0.273 | 0.528 | 0.493 | 0.439 | 0.169 | 0.153 |  |  |  |  |  | 0.856 | 1.13 | 0.719 | 0.704 | 0.433
20 | SW 900 |  |  |  |  |  | 0.577 | 0.615 | 0.442 | 0.218 | 0.206 | 0.525 | 0.591 | 0.392 | 0.264 | 0.24 | 0.806 | 0.87 | 0.725 | 0.596 | 0.278
21 | SW 1573 | 0.634 | 0.618 | 0.595 | 0.29 | 0.198 | 0.291 | 0.336 | 0.292 | 0.153 | 0.123 |  |  |  |  |  | 0.873 | 0.931 | 0.475 | 0.537 | 0.278

Reference: the supplement of paper PMC10307832
